Where a SMILES comes first, the peptide text is derived from it. The star is where a group is joined. X1 = CC(C)C[C@@H](N)[C@H](O)C(=O)*
Tests used:
Type in all cases: biochemical
[1] = biological target: T1, aminopeptidase A (AP-A) (Homo sapiens, UniProt Q07075); experiment: AP-A (E.C. 3,4,11,7) inhibition assay; settings: L-α-glutamyl-β-naphthylamide substrate, pH 7.0, 37° C., 30 minutes; read-out: IC/50 AP--A: amount of the peptide to inhibit the intact activity of the target enzyme by 50% (converted)
T1 construct: an AP-A solution which was obtained by ammonium sulfate fractionation according to the method of Nagatsu et al; from tissue
Procedure: That is, 0.25 ml of 2 mM L-α-glutamyl-β-naphthylamide, 0.54 ml of 0.1 M Tris-HCl buffer, pH 7.0, 0.01 ml of 0.1 M calcium chloride and 0.1 ml of a test sample in water were mixed and kept at 37° C. for 3 minutes. The reaction was initiated by addition of 0.1 ml of an AP-A solution which was obtained by ammonium sulfate fractionation according to the method of Nagatsu et al. After incubation at 37° C. for 30 minutes, 1 ml of 1.0 M acetate buffer, pH 4.2, containing 1.0 mg/ml Garnet GBC (orthoaminoazotoluene diazonium salt) and 10% Tween 20 (Atlas Chemical Co., U.S.A.) was added to the reaction solution and then allowed to stand at room temperature for 15 minutes. The absorbance of the test solution (a) was measured at 530 nm. The control solution without the test sample was used as the blank test (absorbance (b)). The inhibition percentage on aminopeptidase A was calculated as [(b-a)/b]x100.

[2] = biological target: T2, leucine aminopeptidase (Leu-AP) (Sus scrofa, UniProt P28839); experiment: Leu-AP (E.C. 3,4,11,1) inhibition assay; settings: Leu-AP (Boehringer-Mannheim), leucyl-β-naphthylamide substrate, pH 7.6, 37° C., 30 minutes; read-out: IC/50 Leu--AP: amount of the peptide to inhibit the intact activity of the target enzyme by 50% (converted)
T2 construct: purchased Boehringer-Mannheim Co
T2 sequence (P28839 1-519): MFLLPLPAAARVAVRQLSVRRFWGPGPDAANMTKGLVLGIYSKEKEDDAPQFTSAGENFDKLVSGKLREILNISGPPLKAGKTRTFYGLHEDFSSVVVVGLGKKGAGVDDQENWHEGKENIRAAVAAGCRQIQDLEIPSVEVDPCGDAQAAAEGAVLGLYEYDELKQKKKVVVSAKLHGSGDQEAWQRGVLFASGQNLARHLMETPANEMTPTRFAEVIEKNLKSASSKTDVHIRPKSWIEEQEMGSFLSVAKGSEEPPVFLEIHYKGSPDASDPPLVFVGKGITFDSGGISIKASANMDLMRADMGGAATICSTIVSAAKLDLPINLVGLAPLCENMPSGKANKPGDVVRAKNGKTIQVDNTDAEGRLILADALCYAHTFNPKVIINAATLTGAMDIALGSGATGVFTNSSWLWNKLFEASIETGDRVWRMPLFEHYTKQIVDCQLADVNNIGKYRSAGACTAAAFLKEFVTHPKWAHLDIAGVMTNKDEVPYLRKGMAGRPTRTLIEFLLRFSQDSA
Procedure: For enzyme assay, 0.25 ml of 2 mM […], 0.6 ml of 0.1 M Tris-HCl buffer, pH 7.6, and 0.1 ml of an aqueous solution containing a test compound were mixed and allowed to stand at 37° C. for 3 minutes. After a 20-fold dilution of Leu-AP (Boehringer-Mannheim Co.) in 0.1 M Tris-HCl buffer, pH 7.6 (0.05 ml) was added to the solution, the reaction was performed at 37° C. for 30 minutes. The inhibition percentage was measured as detailed in (1).

[3] = biological target: glycylprolylleucine tripeptidylaminopeptidase (Gly-Pro-Leu-AP); experiment: Gly-Pro-Leu-AP inhibition assay; settings: enzyme from cell membrane fraction of rat liver, Hanks solution pH 7.2, 37° C., 30 minutes
Procedure: According to the method of Aoyagi et al. (T. Aoyagi et al: BIOCHIMICA ET BIOPHYSICA ACTA 452, 131-143(1976)), after a reaction mixture consisting of 0.25 ml of 2 mM glycyl-L-α-prolyl-L-α-leucyl-β-naphthylamide (Buchem Fine Chemicals Co.), 0.6 ml of the Hanks solution, pH 7.2, and 0.1 ml of an aqueous test solution was kept at 37° C. for 3 minutes, 0.05 ml of a Gly-Pro-Leu-AP that was purified from the cell membrane fraction of the rat liver was added and the reaction was carried out at 37° C. for 30 minutes. The same procedure as described in (1) was used for calculation of the inhibition percentage.
The Hanks solution listed above was prepared by dissolving 8.0 g sodium chloride, 0.4 g potassium chloride, 0.14 g calcium chloride, 0.10 g magnesium chloride, 0.06 g disodium-monohydrogen phosphate, 0.06 g monopotassium dihydrogen phosphate, 0.10 g magnesium sulfate and 1.0 g glucose in 1 liter of distilled water and adjusting the solution to pH 7.2 with solid sodium bicarbonate (about 350 mg).

[4] = biological target: glycylhistidyllysine tripeptidylaminopeptidase (Gly-His-Lys-AP); experiment: Gly-His-Lys-AP inhibition assay; settings: enzyme from FM3A cells (mouse mammary tumor), Hanks solution pH 7.2, 37° C., 30 minutes
Procedure: For enzyme assay, 0.25 ml of 0.5 mM glycyl-L-α-histidyl-L-α-lysyl-β-naphthylamide, 0.62 ml of the Hanks solution, pH 7.2, and 0.1 ml of an aqueous solution of a substance to be tested were combined and maintained at 37° C. for 3 minutes. Gly-His-Lys-AP solution (0.03 ml) which was purified from the FM3A cells (a line of culture cells derived from mouse mammary tumor) by the method described in the reference of (4) was added to the solution and incubated at 37° C. for 30 minutes. The inhibition percentage was calculated as shown in (1).
Gly-His-Lys -β-naphthylamide used above was prepared as follows: to a solution containing 1 g of Gly-His-Lys-acetate (Buchem Fine Chemicals Co.) and 3.0 g of sodium bicarbonate in 60 ml of distilled water, 2.13 ml of Z-Cl was added dropwise under cooling with ice and then stirred for 3 hours. The same treatment as detailed above in Experiment 1-(7) was performed to give 605.8 mg of the Z-derivative of the tripeptide. […]

T1 sequence (Q07075 whole entry): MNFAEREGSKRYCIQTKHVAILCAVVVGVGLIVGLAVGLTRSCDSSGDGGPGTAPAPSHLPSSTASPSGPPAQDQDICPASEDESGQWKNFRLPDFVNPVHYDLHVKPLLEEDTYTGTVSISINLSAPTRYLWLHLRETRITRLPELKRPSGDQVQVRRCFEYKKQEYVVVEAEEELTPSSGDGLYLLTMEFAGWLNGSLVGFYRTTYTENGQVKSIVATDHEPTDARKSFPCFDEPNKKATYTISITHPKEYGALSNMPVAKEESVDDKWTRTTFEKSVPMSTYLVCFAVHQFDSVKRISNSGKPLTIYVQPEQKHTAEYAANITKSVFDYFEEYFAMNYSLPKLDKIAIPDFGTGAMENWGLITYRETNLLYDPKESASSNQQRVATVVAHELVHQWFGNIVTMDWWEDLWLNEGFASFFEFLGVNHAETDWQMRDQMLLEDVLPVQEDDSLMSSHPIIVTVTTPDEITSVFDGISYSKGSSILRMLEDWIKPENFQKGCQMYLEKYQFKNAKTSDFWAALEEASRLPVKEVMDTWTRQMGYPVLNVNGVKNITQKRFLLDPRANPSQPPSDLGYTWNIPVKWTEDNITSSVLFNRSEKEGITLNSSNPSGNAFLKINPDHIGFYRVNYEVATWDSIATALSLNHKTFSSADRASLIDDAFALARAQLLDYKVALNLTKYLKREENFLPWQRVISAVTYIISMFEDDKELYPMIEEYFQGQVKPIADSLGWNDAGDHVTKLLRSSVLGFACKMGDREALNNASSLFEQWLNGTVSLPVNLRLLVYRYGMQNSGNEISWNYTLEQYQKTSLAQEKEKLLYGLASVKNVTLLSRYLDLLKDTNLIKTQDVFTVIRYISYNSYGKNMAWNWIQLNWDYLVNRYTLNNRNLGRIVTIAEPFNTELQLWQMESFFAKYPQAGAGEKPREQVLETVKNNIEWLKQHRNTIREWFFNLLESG

| IC50 [1] | IC50 [2] | IC/50 Gly--Pro--Leu--AP: amount of the peptide to inhibit the intact activity of the target enzyme by 50% [3] | IC/50 Gly--His--Lys--AP: amount of the peptide to inhibit the intact activity of the target enzyme by 50% [4] | Compound |
| --- | --- | --- | --- | --- |
| > 597 µM | > 597 µM | – | – | CC(C)C[C@@H](N)[C@H](O)C(=O)N[C@@H](C)C(=O)N[C@@H](C)C(=O)N[C@@H](CC(=O)O)C(=O)O [X--Ala--Ala--Asp] |
| > 905 µM | 105 µM | – | – | CC(C)C[C@@H](N)[C@H](O)C(=O)N[C@@H](CC(=O)O)C(=O)O [X--Asp] |
| 3.96 µM | 79.3 µM | 6 µg/mL | 2.0 µg/mL | CC(C)C[C@@H](N)[C@H](O)C(=O)N[C@@H](CCC(=O)O)C(=O)N[C@H](C(=O)N[C@@H](CC(=O)O)C(=O)O)C(C)C [X--Glu--Val--Asp, (2S,3R)-AHMHA-Glu-Val-Asp] |
| 10.2 µM | 0.614 µM | – | – | CC(C)C[C@H](NC(=O)[C@@H](O)[C@H](N)CC(C)C)C(=O)N[C@H](C(=O)N[C@@H](CC(=O)O)C(=O)O)C(C)C [X--Leu--Val--Asp, (2S,3R)-AHMHA-Leu-Val-Asp] |
| 2.98 µM | 218 µM | – | – | CC(C)C[C@@H](N)[C@H](O)C(=O)N[C@@H](CCCCN)C(=O)N[C@H](C(=O)N[C@@H](CC(=O)O)C(=O)O)C(C)C [X--Lys--Val--Asp, (2S,3R)-AHMHA-Lys-Val-Asp] |
| 3.9 µM | 369 µM | – | – | CC(C)C[C@@H](N)[C@H](O)C(=O)N[C@@H](CCCCN)C(=O)N[C@H](C(=O)N[C@H](C(=O)O)C(C)C)C(C)C [X--Lys--Val--Val, (2S,3R)-AHMHA-Lys-Val-Val] |
| 774 µM | 83.2 µM | – | – | CC(C)C[C@@H](N)[C@H](O)C(=O)N1CCC[C@H]1C(=O)O [X--Pro] |
| 0.315 µM | 5.25 µM | – | – | CC(C)C[C@@H](N)[C@H](O)C(=O)N[C@H](C(=O)N[C@H](C(=O)N[C@@H](CC(=O)O)C(=O)O)C(C)C)[C@@H](C)O [X--Thr--Val--Asp, (2S,3R)-AHMHA-Thr-Val-Asp] |
| 32 µM | 0.799 µM | – | – | CC(C)C[C@@H](N)[C@H](O)C(=O)N[C@H](C(=O)N[C@@H](CC(=O)O)C(=O)O)C(C)C [X--Val--Asp] |
| 15.9 µM | 0.198 µM | 15 µg/mL | 100 µg/mL | CC(C)C[C@@H](N)[C@H](O)C(=O)N[C@H](C(=O)N[C@@H](CCC(=O)O)C(=O)N[C@@H](CC(=O)O)C(=O)O)C(C)C [X--Val--Glu--Asp, (2S,3R)-AHMHA-Val-Glu-Asp] |
| 0.614 µM | 1.43 µM | – | – | CC(C)C[C@H](NC(=O)[C@@H](NC(=O)[C@@H](O)[C@H](N)CC(C)C)C(C)C)C(=O)N[C@@H](CC(=O)O)C(=O)O [X--Val--Leu--Asp, (2S,3R)-AHMHA-Val-Leu-Asp] |
| 19.9 µM | 6.95 µM | – | – | CC(C)C[C@@H](N)[C@H](O)C(=O)N[C@H](C(=O)N[C@@H](CCCCN)C(=O)N[C@@H](CC(=O)O)C(=O)O)C(C)C [X--Val--Lys--Asp, (2S,3R)-AHMHA-Val-Lys-Asp] |
| 2.1 µM | 2.1 µM | – | – | CC(C)C[C@@H](N)[C@H](O)C(=O)N[C@H](C(=O)N[C@H](C(=O)N[C@@H](CC(=O)O)C(=O)O)[C@@H](C)O)C(C)C [X--Val--Thr--Asp, (2S,3R)-AHMHA-Val-Thr-Asp] |
| 1.18 µM | 0.727 µM | – | – | CC(C)C[C@@H](N)[C@H](O)C(=O)N[C@H](C(=O)N[C@H](C(=O)N[C@@H](Cc1ccccc1)C(=O)O)[C@@H](C)O)C(C)C [X--Val--Thr--Phe, (2S,3R)-AHMHA-Val-Thr-Phe] |
| 26.2 µM | 38.8 µM | – | – | CC(C)C[C@@H](N)[C@H](O)C(=O)N[C@H](C(=O)N[C@H](C(=O)N[C@@H](CCCNC(=N)N)C(=O)O)C(C)C)C(C)C [X--Val--Val-- Arg, (2S,3R)-AHMHA-Val-Val-Arg] |
| 4.09 µM | 4.5 µM | – | – | CC(C)C[C@@H](N)[C@H](O)C(=O)N[C@H](C(=O)N[C@H](C(=O)N[C@@H](CCC(=O)O)C(=O)O)C(C)C)C(C)C [X--Val--Val--Glu, reference compound] |
| 43.1 µM | 65.6 µM | – | – | CC(C)C[C@@H](N)[C@H](O)C(=O)N[C@H](C(=O)N[C@H](C(=O)N[C@@H](CCCCN)C(=O)O)C(C)C)C(C)C [X--Val--Val--Lys, (2S,3R)-AHMHA-Val-Val-Lys] |
| 14.2 µM | 4.34 µM | – | – | CC(C)C[C@@H](N)[C@H](O)C(=O)N[C@H](C(=O)N[C@H](C(=O)N[C@@H](Cc1ccccc1)C(=O)O)C(C)C)C(C)C [X--Val--Val--Phe, (2S,3R)-AHMHA-Val-Val-Phe] |
| 76.7 µM | 5.91 µM | – | – | CC(C)C[C@@H](N)[C@H](O)C(=O)N[C@H](C(=O)N[C@H](C(=O)N1CCC[C@H]1C(=O)O)C(C)C)C(C)C [X--Val--Val--Pro, (2S,3R)-AHMHA-Val-Val-Pro] |
| 5.86 µM | 7.6 µM | – | – | CC(C)C[C@@H](N)[C@H](O)C(=O)N[C@H](C(=O)N[C@H](C(=O)N[C@H](C(=O)O)[C@@H](C)O)C(C)C)C(C)C [X--Val--Val--Thr, (2S,3R)-AHMHA-Val-Val-Thr] |
| 9.38 µM | 3.92 µM | – | – | CC(C)C[C@@H](N)[C@H](O)C(=O)N[C@H](C(=O)N[C@H](C(=O)N[C@H](C(=O)O)C(C)C)C(C)C)C(C)C [X--Val--Val--Val, (2S,3R)-AHMHA-Val-Val-Val] |
| 31.4 µM | 7.32 µM | – | – | CC(C)C[C@@H](N)[C@H](O)C(=O)N[C@H](C(=O)N[C@H](C(=O)N[C@H](C(=O)N[C@@H](CC(=O)O)C(=O)O)C(C)C)C(C)C)C(C)C [X--Val--Val--Val--Asp] (X1-VVVD-OH) |
| 10 µM | 2.5 µM | – | – | CC(C)C[C@@H](N)[C@H](O)C(=O)N[C@H](C(=O)N[C@H](C(=O)O)C(C)C)C(C)C [X--Val--Val] |
| 864 µM | 1.92 µM | – | – | CC(C)C[C@@H](N)[C@H](O)C(=O)N[C@H](C(=O)O)C(C)C [X--Val] |
